Measurements reported in patent publication US12709760B2, “KIR 7.1 gene therapy vectors and methods of using the same” (WISCONSIN ALUMNI RESEARCH FOUNDATION, priority 2018, dated 2026).
Entries after “also recorded” stand apart in the source; their conditions may differ.

How the values were obtained:
[1] = system: Kir7.1 channel in LCA16 iPSC-RPE cells; assay: Whole-cell patch clamp of LCA16 patient-derived iPSC-RPE cells; type: cell-based, human
Procedure: Electrophysiology. Standard whole cell patch clamp on single cells were performed as described^6 Briefly, the tight monolayer of hiPSC-RPE grown on a 6.5 mm transwell was dissociated into a single cell suspension as follows: the medium in which cells were maintained was completely removed and the cells were washed twice with 0NaCMF solution (135 mM NMDG-Cl, 5 mM KCl, 10 mM HEPES, 10 mM Glucose, 2 mM EDTA-KOH and adjusted to pH 7.4 with NMDG free base). The cells were then incubated with 0NaCMF containing papain (2.5 μl/ml), cysteine (0.3 mg/ml), glutathione (0.25 mg/ml) and taurine (0.05 mg/ml) for 45 mins at 37° C. The cells were rinsed with 0NaCMF solution to remove enzymes, resuspended in HEPES-Ringer's (HR) solution [NaCl (135 mM), KCl (5 mM), CaCl2) (1.8 mM), MgCl2 (1 mM), HEPES (10 mM), D-glucose (10 mM), pH 7.4±0.1 with NaOH, prepared in ddH2O], and kept on ice for up to 8 hrs until used for electrophysiological recording.
Single hiPSC-RPE cells with distinct apical processes were chosen for conventional patch clamping. Patch pipettes with a resistance of […] were fabricated from borosilicate capillaries using a pipet puller (P-1000®, Sutter instruments). The glass electrode was then fire polished using a microforge (MF-830®, Narshige). Data acquisition and the holding potential parameters were controlled using the Clampex® software (Axon instruments). Current recorded from the successful patch was amplified using Axopatch 200-B® (Axon Instruments) and filtered at 2 KHz. The signal was digitized using digidata 1400A® (Axon instruments) and analyzed using Clampfit® (Axon Instruments). During patch clamping, HR solution was continuously perfused as an external solution. The patch pipette was filled with solution containing 30 mM KCl, 83 mM K-gluconate, 5.5 mM EGTA-KOH, 0.05 mM CaCl2), 4 mM MgCl2, 10 mM HEPES, pH adjusted to 7.2 with KOH and filtered using the 0.2 μm filter.

[2] = system: Kir7.1 Trp53Ter protein in CHO-K1 cells; assay: Immunoprecipitation / Western blot of GFP-fused Kir7.1 Trp53Ter protein after read-through; type: cell-based; details: Kir7.1-GFP fusion W53X, NB84-treated cells, anti-GFP
[3] = LCA16 hiPSC-RPE subgroup, 100 or 500 μM NB84

What does the source list for `C[C@@H](O)C1O[C@H](O[C@@H]2C(N)C[C@@H](NC(=O)[C@@H](O)CCN)[C@@H](O)C2O[C@@H]2O[C@H](CN)[C@H](O)C2O)[C@@H](N)C(O)[C@@H]1O` (some centres unmarked) [NB84]?
Current amplitude rescue in a subpopulation of cells [1, 3]: no rescue in current amplitude; Membrane potential rescue in a subpopulation of cells [1, 3]: rescue of membrane potential to control levels; Enhancement of current by Rb+ ([1]; LCA16 iPSC-RPE, 500 μM NB84): 10 fold; Current amplitude upon introduction of Rb+ ([1]; LCA16 iPSC-RPE, 500 μM NB84, high external Rb+, −150 mV, n=8): −1562.7±546.7 pA; Kir7.1 current amplitude, normal external K+ ([1]; LCA16 iPSC-RPE, 500 μM NB84, inward current at −150 mV, n=8): −94.3±24 pA; Membrane potential ([1]; LCA16 iPSC-RPE, NB84-treated cells, n=10): −56.3±3.6 mV; Resting membrane potential versus control level ([1]; LCA16 iPSC-RPE, bar graph comparison FIG. 7D): recovery of LCA16 iPSC-RPE to control level; Full-length Kir7.1 protein product [2]: a protein band equivalent to the full-length product was detected; also recorded: partial restoration of the full-length protein product
